Measured values reported in patent US12139487B2, “Compounds and uses thereof” (Foghorn Therapeutics Inc., priority 2022, dated 2024).

Tested on: BRM-dependent transcription (BRG1 mutant lung cancer cell line A549)
Experiment: BRM-dependent transcription, MMTV luciferase reporter in BRG1 mutant A549 cells
Assay type: cell-based
Conditions: Table 11; for IC50: A549-MMTV luciferase reporter, dexamethasone induced, 6 hours; for Ratio (MDA-MMTV IC50 (μM) divided by A549-MMTV IC50 (μM)): MMTV luciferase reporter cell lines, selectivity BRG1/BRM
In short: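 Compound dose series added to dexamethasone-stimulated A549 cells (BRG1 mutant) carrying a BRM-dependent mouse mammary tumor virus luciferase reporter; luminescence measured at 6 h post-stimulation.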

Row | SMILES | IC50 (Homo sapiens, A549, 6 h) | Ratio (MDA-MMTV IC50 (μM) divided by A549-MMTV IC50 (μM)) | IC50
1 | O=C(NCc1cc2nc(-c3cccc(OC(F)F)n3)ccc2cn1)c1cc(Cl)c2c(c1)S(=O)(=O)[C@@H](F)CCO2 [Compound 346] | 19.9 nM | 44.98 | 
2 | O=C(NCc1cc2nc(-c3cccc4c3OC(F)(F)O4)ccc2cn1)c1cc(F)c2c(c1)S(=O)(=O)[C@@H](F)COC2 [Compound 458] | 15.6 nM | 23.65 | 
3 | [2H]C([2H])([2H])C([2H])([2H])Oc1ccc(-c2ccc3cnc(CNC(=O)c4cc(F)c5c(c4)S(=O)(=O)[C@@H](F)COC5)cc3n2)nc1[C@@H]1CC1(F)F [Compound 464] | 7.1 nM | 39.23 | 
4 | COc1nc([C@@H](F)CF)ccc1-c1ccc2cnc(CNC(=O)c3cc(Cl)c4c(c3)S(=O)(=O)[C@@H](F)CCO4)cc2n1 [Compound 382] | 9.6 nM | 40.88 | 
5 | CCOc1cccc(-c2ccc3cnc(CNC(=O)c4cc(F)c5c(c4)S(=O)(=O)[C@@H](F)CCO5)cc3n2)n1 [Compound 358] | 15.3 nM | 27.40 | 
6 | CCOc1ccc(-c2ccc3cnc(CNC(=O)c4cc(C(F)F)c5c(c4)S(=O)(=O)[C@@H](F)COC5)cc3n2)nc1C1CC1(F)F (stereo partly drawn) [Compound 416] | 19.9 nM | 50.12 | 
7 | O=C(NCc1cc2nc(-n3cc(F)c(OC(F)F)n3)ccc2cn1)c1cc(Cl)c2c(c1)S(=O)(=O)[C@@H](F)COC2 [Compound 474] | 18.6 nM | 42.97 | 
8 | O=C(NCc1cc2nc(-c3ccnc(N4CCC4)n3)ccc2cn1)c1cc(F)c2c(c1)S(=O)(=O)[C@@H](F)CCO2 [Compound 343] | 11.1 nM | 24.93 | 
9 | [2H]C([2H])([2H])C([2H])([2H])Oc1ccc(-c2ccc3cnc(CNC(=O)c4cc(F)c5c(c4)S(=O)(=O)[C@@]([2H])(F)C([2H])([2H])C([2H])([2H])O5)cc3n2)nc1C1CC1(F)F (stereo partly drawn) [Compound 378] | 11.1 nM | 43.63 | 
10 | CCOc1nc([C@H](F)CF)ccc1-c1ccc2cnc(CNC(=O)c3cc(Cl)c4c(c3)S(=O)(=O)[C@@H](F)COC4)cc2n1 [Compound 519] |  | 28.12 | 22.6 nM
11 | C[C@@H]1CN(c2cccc(-c3ccc4cnc(CNC(=O)c5cc(C6CC6)c6c(c5)S(=O)(=O)[C@@H](F)CCO6)cc4n3)n2)C[C@H](C)O1 [Compound 350] | 17 nM | 25.08 | 
12 | O=C(NCc1cc2nc(-c3cccc(OCC(F)F)n3)ccc2cn1)c1cc(Cl)c2c(c1)S(=O)(=O)[C@@H](F)COC2 [Compound 387] | 17.3 nM | 34.06 | 
13 | C[C@@H]1CN(c2cccc(-c3ccc4cnc(CNC(=O)c5cc(C#N)c6c(c5)S(=O)(=O)[C@@H](F)CCO6)cc4n3)n2)C[C@H](C)O1 [Compound 372] | 7.6 nM | 21.84 | 
14 | O=C(NCc1cc2nc(-n3cc(F)c(OC4CC4)n3)ccc2cn1)c1cc(F)c2c(c1)S(=O)(=O)[C@@H](F)CCO2 [Compound 386] | 26 nM | 23.22 | 
15 | CCOc1nc([C@@H](C)F)ccc1-c1ccc2cnc(CNC(=O)c3cc(F)c4c(c3)S(=O)(=O)[C@@H](F)CCO4)cc2n1 [Compound 376] | 15.3 nM | 22.09 | 
16 | COCCCOc1cnc2c(c1)OCCN2c1ccc2cnc(CNC(=O)c3cc(C(F)F)c4c(c3)S(=O)(=O)[C@@H](F)COC4)cc2n1 [Compound 494] | 5.7 nM | 28.82 | 
17 | COCCOc1cnc2c(c1)OCCN2c1ccc2cnc(CNC(=O)c3cc(Br)c4c(c3)S(=O)(=O)[C@@H](F)CCO4)cc2n1 [Compound 424] | 23.7 nM | 31.82 | 
18 | Cc1ccc(-c2ccc3cnc(CNC(=O)c4cc(Cl)c5c(c4)S(=O)(=O)[C@@H](F)CCO5)cc3n2)c(OC(F)F)n1 [Compound 347] | 17.2 nM | 25.03 | 
19 | O=C(NCc1cc2nc(-c3cccc(OC(F)(F)Cl)n3)ccc2cn1)c1cc(Cl)c2c(c1)S(=O)(=O)[C@@H](F)CCO2 [Compound 362] | 22.2 nM | 31.16 | 
20 | O=C(NCc1cc2nc(-c3cccc(C4CC4)n3)ccc2cn1)c1cc(Cl)c2c(c1)S(=O)(=O)[C@@H](F)CCO2 [Compound 337] | 20.1 nM | 30.81 | 
21 | CCOc1nc([C@H](F)CF)ccc1-c1ccc2cnc(CNC(=O)c3cc(Br)c4c(c3)S(=O)(=O)[C@@H](F)COC4)cc2n1 [Compound 461] | 25.9 nM | 56.88 | 
